Measured values as given in ChEMBL document CHEMBL4665657, “2-Phenyl-8-(1-phenylallyl)-chromenone compounds have a pan-PPAR modulator pharmacophore” (Bioorg Med Chem, 2019).
Calls of active or inactive are those of the source. The calls are words filed in the database; no cut-off is given here.

How the values were obtained:
PC-3 = assay: Cytotoxicity against human PC-3 cells assessed as reduction in cell viability incubated for 72 hrs by WST-8 assay; assay type: functional, cell-based; conditions: PC-3, 72 h
[1] = biological target: T1, Peroxisome proliferator-activated receptor delta (Homo sapiens, UniProt Q03181); assay: Binding affinity to PPARdelta (unknown origin) by TR-FRET assay
T1 sequence (Q03181 whole entry): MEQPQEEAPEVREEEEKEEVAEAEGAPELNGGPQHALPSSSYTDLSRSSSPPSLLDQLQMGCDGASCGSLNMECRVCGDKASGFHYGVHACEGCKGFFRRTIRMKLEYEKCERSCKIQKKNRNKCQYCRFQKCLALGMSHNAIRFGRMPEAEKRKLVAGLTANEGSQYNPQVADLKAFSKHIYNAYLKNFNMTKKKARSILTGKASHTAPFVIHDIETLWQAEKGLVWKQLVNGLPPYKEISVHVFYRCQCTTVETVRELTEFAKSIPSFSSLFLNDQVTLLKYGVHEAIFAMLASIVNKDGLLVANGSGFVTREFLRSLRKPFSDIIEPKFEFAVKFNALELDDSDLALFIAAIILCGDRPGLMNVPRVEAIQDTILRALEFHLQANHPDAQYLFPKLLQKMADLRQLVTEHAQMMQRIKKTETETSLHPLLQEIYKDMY

[2] = biological target: T2, Peroxisome proliferator-activated receptor alpha (Homo sapiens, UniProt Q07869); assay: Binding affinity to PPARalpha (unknown origin) by TR-FRET assay
T2 sequence (Q07869 whole entry): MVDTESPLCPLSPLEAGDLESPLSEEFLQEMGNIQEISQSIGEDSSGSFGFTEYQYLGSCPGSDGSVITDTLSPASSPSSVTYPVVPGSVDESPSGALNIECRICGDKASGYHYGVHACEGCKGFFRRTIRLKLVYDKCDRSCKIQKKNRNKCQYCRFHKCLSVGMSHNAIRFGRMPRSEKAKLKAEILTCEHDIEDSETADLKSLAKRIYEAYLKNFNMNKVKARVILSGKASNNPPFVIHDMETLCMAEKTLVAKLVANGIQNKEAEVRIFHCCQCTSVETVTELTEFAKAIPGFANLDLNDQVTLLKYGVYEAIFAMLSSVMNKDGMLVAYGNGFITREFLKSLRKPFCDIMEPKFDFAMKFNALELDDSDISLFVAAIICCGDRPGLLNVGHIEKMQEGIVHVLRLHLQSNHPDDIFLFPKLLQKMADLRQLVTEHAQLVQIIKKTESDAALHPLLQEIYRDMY

BMMSC [3] = assay: Induction of adipogenesis in human BMMSC cells assessed as lipid droplet formation at 10 uM incubated for 5 days by oil red O staining based inverted microscopy analysis; assay type: functional, cell-based; conditions: time 5.0 day
[4] = Cytotoxicity against human BM-MSC cells assessed as cell viability at 100 uM incubated for 72 hrs by WST-8 assay; assay type: cell-based, BMMSC; conditions: read-out: Activity
BMMSC [5] = assay: Induction of adipogenesis in human BMMSC cells assessed as increase in adiponectin secretion incubated for 5 days by ELISA; assay type: functional, cell-based; conditions: time 5.0 day
BMMSC [6] = assay: Induction of adipogenesis in human BMMSC cells assessed as increase in adiponectin secretion at 10 uM incubated for 5 days by ELISA; assay type: functional, cell-based; conditions: time 5.0 day
A549 = assay: Cytotoxicity against human A549 cells assessed as reduction in cell viability incubated for 72 hrs by WST-8 assay; assay type: functional, cell-based; conditions: A549, 72 h
[7] = biological target: T3, Peroxisome proliferator-activated receptor gamma (Homo sapiens, UniProt P37231); assay: Binding affinity to PPARgamma (unknown origin) by TR-FRET assay
T3 sequence (P37231 whole entry): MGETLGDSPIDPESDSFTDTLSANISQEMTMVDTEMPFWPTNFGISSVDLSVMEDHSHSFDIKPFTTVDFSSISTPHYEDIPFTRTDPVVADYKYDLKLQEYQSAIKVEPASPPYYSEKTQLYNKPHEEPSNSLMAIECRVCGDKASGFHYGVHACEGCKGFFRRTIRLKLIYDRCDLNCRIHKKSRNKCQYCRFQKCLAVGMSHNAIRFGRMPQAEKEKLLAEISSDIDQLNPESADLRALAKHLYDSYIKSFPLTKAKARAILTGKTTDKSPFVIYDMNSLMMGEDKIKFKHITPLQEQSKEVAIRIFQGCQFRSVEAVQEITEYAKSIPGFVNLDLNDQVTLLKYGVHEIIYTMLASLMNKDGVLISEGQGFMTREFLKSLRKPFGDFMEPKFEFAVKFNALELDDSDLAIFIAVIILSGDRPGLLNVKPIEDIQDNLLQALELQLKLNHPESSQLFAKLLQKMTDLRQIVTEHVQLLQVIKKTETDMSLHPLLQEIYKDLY

BMMSC [8] = assay: Induction of adipogenesis in human BMMSC cells assessed as increase in ACACB mRNA at 10 uM incubated for 3 days by qRT-PCR analysis; assay type: functional, cell-based; conditions: time 3.0 day
BMMSC [9] = assay: Induction of adipogenesis in human BMMSC cells assessed as increase in HMGCS2 mRNA at 10 uM incubated for 3 days by qRT-PCR analysis; assay type: functional, cell-based; conditions: time 3.0 day
BMMSC [10] = assay: Induction of adipogenesis in human BMMSC cells assessed as increase in ACOX1 mRNA at 10 uM incubated for 3 days by qRT-PCR analysis; assay type: functional, cell-based; conditions: time 3.0 day
BMMSC [11] = assay: Induction of adipogenesis in human BMMSC cells assessed as increase in HMGCR mRNA at 10 uM incubated for 3 days by qRT-PCR analysis; assay type: functional, cell-based; conditions: time 3.0 day

| Compound | IC50 (PC-3) [µM] | Ki [1] [µM] | Ki [2] [µM] | Activity (BMMSC [3]) | viability at 72 h, 100 µM [4] [%] | Activity (BMMSC [5]) | Activity (BMMSC [6]) | IC50 (A549) [µM] | Ki [7] [µM] | Activity (BMMSC [8]) | Activity (BMMSC [9]) | Activity (BMMSC [10]) | Activity (BMMSC [11]) |
| --- | --- | --- | --- | --- | --- | --- | --- | --- | --- | --- | --- | --- | --- |
| C=CC(c1ccc(O)c(OC)c1)c1c(O)cc(O)c2c(=O)cc(-c3ccccc3)oc12 (stereo unspecified) | 30.6 | 2.48 | 2.41 | Active | 57 | Dose-dependent effect | Active | 55.5 | 2.53 | – | – | – | – |
| Cc1cccc(Nc2cc(Cl)nc(SCC(=O)O)n2)c1C | – | – | – | – | – | – | – | – | – | Active | Active | Active | Active |
| C=CC(c1ccc(OC)cc1)c1c(O)cc(O)c2c(=O)cc(-c3ccccc3)oc12 (stereo unspecified) | – | – | – | Active | – | Dose-dependent effect | Active | – | – | – | – | – | – |
